Like-named read-outs stand apart in the source and are kept apart here.
Tests used:
[1] = Assay for stability in liver microsomes; format: in vitro ADME; conditions: human liver microsomes; for half-life at 1 µM: NADPH, 37° C., 0/30/60 min; for CLint scaled at 1 µM: liver intrinsic clearance rate
Experimental: This experiment was intended to investigate the metabolic stability of the test compounds in human liver microsomes. The materials used in the experiment included 10 mM solutions of the test compounds and the control sample, human liver microsomes, and reduced nicotinamide adenine dinucleotide phosphate (NADPH) powder. In the experiment, a 100 mM potassium phosphate buffer was used as the buffer system.
The liver microsome working solution was prepared by diluting the liver microsome stock solution to 0.75 mg/mL using the 100 mM potassium phosphate buffer. Then, 5 μL of the 10 mM stock solution of the test compound was taken, and 195 μL of methanol was added. The mixture was well mixed to prepare a working solution A with a concentration of 0.25 mM.
Subsequently, the working solution A was diluted to 1.5 μM using the liver microsome working solution to prepare a compound-liver microsome mixed solution. Additionally, NADPH powder was dissolved in a 100) mM potassium phosphate buffer to prepare a 6 mM NADPH solution. The compound-liver microsome mixed solution was dispensed into a 96-well plate at 30 μL/well, with labeled time points of 0 min, 30 min, and 60 min. For 0-min samples, 180 μL of acetonitrile containing 100 ng/mL tolbutamide and 15 μL of the NADPH solution were added directly. The 96-well plate and the NADPH solution were then preheated under a 37° C. water bath for 5 min. After the preheating, 15 μL of the NADPH solution was added to each of the 30-min and 60-min sample wells. The plate was gently shaken for mixing and then incubated under the 37° C. water bath for the corresponding time. After the incubation was completed. 180 μL of acetonitrile containing 100 ng/mL tolbutamide was added to each sample well. The plate was sealed with a sealing film, shaken for 10 min (800 rpm/min), and then centrifuged for 15 min (4000 rpm). After the centrifugation, 50 μL of the supernatant was taken and added to a 96-well plate containing 150 μL of deionized water, and then the plate was sealed and shaken for 10 min (800 rpm) for uniform mixing. Subsequently sample analysis was performed using liquid chromatography-tandem mass spectrometry (LC-MS/MS).
The elimination rate constant and clearance rate of the test compound in liver microsomes were calculated using the following formulas: Remaining rate (%)=(peak area ratio of the compound to internal standard at any time point/peak area ratio of the compound to internal standard at 0 min)×100%,^4. T1/2=0.693/ke, where ke is the elimination rate constant and T1/2 is the half-life. Liver microsome intrinsic clearance rate (CLint(mic))=0.693/(T1/2× microsome protein concentration (mg/mL)). Liver intrinsic clearance rate (CLint(liver))=CLint(mic)×microsome protein-to-liver weight ratio (mg/g)×liver-to-body weight ratio (g/kg). In the formulas, CLint(mic) is the liver microsome intrinsic clearance rate, CLint(liver) is the liver intrinsic clearance rate, and CL(liver) is the liver clearance rate. For humans, the microsome protein-to-liver weight ratio was 45 mg/g, and the liver-to-body weight ratio was 20.7 g/kg.

[2] = test system: NCI-H441 cells; experiment: 3D cell proliferation assay (CellTiter Glo-3D), NCI-H441; format: cell-based, human; conditions: medium with 2% FBS, read-out: H441 AP IC50
Procedure, shortened: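 NCI-H441 ([…] lung) and AsPC-1 (KRAS G12D pancreatic) cells, 800 per well, were seeded in RPMI-1640 with 2% FBS and dosed next day with 3.16-fold compound dilutions (0.1% DMSO). After 5 days at 37 °C, CellTiter-Glo 3D luminescence gave inhibition versus DMSO and blank; IC50 from four-parameter fit.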

[3] = Homo sapiens, NCI-H441, 3D cell proliferation (CellTiter Glo-3D)
[4] = 3D cell proliferation (CellTiter Glo-3D)

For `CCn1c(-c2cc(N3CCN4CC5(CC5)OC[C@@H]4C3)cnc2[C@H](C)OC)c2c3cc(ccc31)-c1csc(n1)C[C@H](NC(=O)[C@H]1[C@H](C)[C@@H]1C)C(=O)N1CCC[C@H](N1)C(=O)OCC1(CC1)C2` (atropisomer, axis not shown; (Ra)) [Compound Z13], the half-life at 1 µM [1] was 36.7 min, the CLint scaled at 1 µM [1] was 43.7 mL/min/kg and the IC50 [2, 3] was 1.2 nM.

With `CCn1c(-c2cc(C#C[C@@H]3COCCN3C)cnc2[C@H](C)OC)c2c3cc(ccc31)-c1csc(n1)C[C@H](NC(=O)[C@H]1[C@H](C)[C@@H]1C)C(=O)N1CCC[C@H](N1)C(=O)OCC(C)(C)C2` (atropisomer, axis not shown; (Ra)) [Compound Z672, (1r,2R,3S)—N-((6^3S,4S,Z)-1^1-ethyl-(Ra)-1^2-(2-((S)-1-methoxyethyl)-5-(((R)-4-methylmorpholin-3-yl)ethynyl)pyridin-3-yl)-10,10-dimethyl-5,7-dioxo-6^1,6^2,6^3,6^4,6^5,6^6hexahydro-1^1H-8-oxa-2(4,2)-thiazola-1(5,3)-indola-6(1,3)-pyridazinacycloundecaphane-4-yl)-2,3-dimethylcyclopropane-1-carboxamide] the IC50 [2, 3] was 0.3 nM.

Molecule `CO[C@@H](C)c1ncc(C#CCN2CCCOCC2)cc1-c1c2c3cc(ccc3n1CC(F)(F)F)-c1csc(n1)C[C@H](NC(=O)[C@H]1[C@H](C)[C@@H]1C)C(=O)N1CCC[C@H](N1)C(=O)OCC(C)(C)C2` (atropisomer, axis not shown; (Ra)) [Compound Z700, N-((6^3S,4S,Z)-1^1-(2,2,2-trifluoroethyl)-(Ra)-1^2-(2-((S)-1-methoxyethyl)-(5-(3-(1,4-oxazepan-4-yl)prop-1-yn-1-yl))-pyridin-3-yl)-10,10-dimethyl-5,7-dioxo-6^1,6^2,6^3,6^4,6^5,6^6-hexahydro-1^1H-8-oxa-2(4,2)-thiazola-1(5,3)-indola-6(1,3)-pyridazinacycloundecaphane-4-yl)-2,3-dimethylcyclopropane-1-carboxamide] has an IC50 [2, 4] of 0.17 nM.

`CCn1c(-c2cc(C#CCN3C4CCC3COC4)cnc2[C@H](C)OC)c2c3cc(ccc31)-c1csc(n1)C[C@H](NC(=O)[C@H]1[C@H](C)[C@@H]1C)C(=O)N1CCC[C@H](N1)C(=O)OCC(C)(C)C2` (atropisomer, axis not shown; (Ra)) [Compound Z711, (1r,2R,3S)—N-((6^3S,4S,Z)—(Ra)-1^2-(5-(3-(3-oxa-8-azabicyclo[3.2.1]octan-8-yl)prop-1-yn-1-yl)-2-((S)-1-methoxyethyl)pyridin-3-yl)-1^1-ethyl-10,10-dimethyl-5,7-dioxo-6^1,6^2,6^3,6^4,6^5,6^6-hexahydro-1^1H-8-oxa-2(4,2)-thiazola-1(5,3)-indola-6(1,3)-pyridazinacycloundecaphane-4-yl)-2,3-dimethylcyclopropane-1-carboxamide] showed an IC50 [2, 4] of 0.27 nM.

In the case of `CCn1c(-c2cc(C#CCN3CCC(C(F)(F)F)CC3)cnc2[C@H](C)OC)c2c3cc(ccc31)-c1csc(n1)C[C@H](NC(=O)[C@H]1[C@H](C)[C@@H]1C)C(=O)N1CCC[C@H](N1)C(=O)OCC(C)(C)C2` (atropisomer, axis not shown; (Ra)) [Compound Z778], the half-life at 1 µM [1] is reported as 50.3 min, the CLint scaled at 1 µM [1] is reported as 31.9 mL/min/kg and the IC50 [2, 3] is reported as 1.14 nM.

`CCn1c(-c2cc(C#CCN(C)CCOC)cnc2[C@H](C)OC)c2c3cc(ccc31)-c1csc(n1)C[C@H](NC(=O)[C@H]1[C@H](C)[C@@H]1C)C(=O)N1CCC[C@H](N1)C(=O)OCC(C)(C)C2` (atropisomer, axis not shown; (Ra)) [Compound Z788] showed an IC50 [2, 4] of 0.28 nM.

For `CCn1c(-c2cc(C#CCN3CCN(C)C(=O)C3)cnc2[C@H](C)OC)c2c3cc(ccc31)-c1csc(n1)C[C@H](NC(=O)[C@H]1[C@H](C)[C@@H]1C)C(=O)N1CCC[C@H](N1)C(=O)OCC(C)(C)C2` (atropisomer, axis not shown; (Ra)) [Compound Z793], the IC50 [2, 3] was 0.14 nM.

With `CCn1c(-c2cc(C#CCN3CCCN(C)CC3)cnc2[C@H](C)OC)c2c3cc(ccc31)-c1csc(n1)C[C@H](NC(=O)[C@H]1[C@H](C)[C@@H]1C)C(=O)N1CCC[C@H](N1)C(=O)OCC(C)(C)C2` (atropisomer, axis not shown; (Ra)) [Compound Z802, (1r,2R,3S)—N-((6^3S,4S,Z)-1^2-(5-(3-(4-methyl-1,4-diaza-1-yl)prop-1-yn-1-yl)-(Ra)-2-((S)-1-methoxyethyl)pyridin-3-yl)-1^1-ethyl-10,10-dimethyl-5,7-dioxo-6^1,6^2,6^3,6^4,6^5,6^6-hexahydro-1^1H-8-oxa-2(4,2)-thiazola-1(5,3)-indola-6(1,3)-pyridazinacycloundecaphane-4-yl)-2,3-dimethylcyclopropane-1-carboxamide] the half-life at 1 µM [1] was 98.7 min, the CLint scaled at 1 µM [1] was 16.2 mL/min/kg and the IC50 [2, 3] was 0.26 nM.

With `CCn1c(-c2cc(C#CCN3CCOC[C@H]3C)cnc2[C@H](C)OC)c2c3cc(ccc31)-c1csc(n1)C[C@H](NC(=O)[C@H]1[C@H](C)[C@@H]1C)C(=O)N1CCCC(N1)C(=O)OCC(C)(C)C2` (atropisomer, axis not shown; (Ra)) [Compound Z813] the IC50 [2, 4] was 0.15 nM.

In the case of `CCn1c(-c2cc(C#CCN3CCS(=O)(=O)CC3)cnc2[C@H](C)OC)c2c3cc(ccc31)-c1csc(n1)C[C@H](NC(=O)[C@H]1[C@H](C)[C@@H]1C)C(=O)N1CCC[C@H](N1)C(=O)OCC(C)(C)C2` (atropisomer, axis not shown; (Ra)) [Compound Z838, (1r,2R,3S)—N-((6^3S,4S,Z)—(Ra)-1^2-(5-(3-(1,1-dioxidothiomorpholino)prop-1-yn-1-yl)-2-((S)-1-methoxyethyl)pyridin-3-yl)-1^1-ethyl-10,10-dimethyl-5,7-dioxo-6^1,6^2,6^3,6^4,6^5,6^6-hexahydro-1^1H-8-oxa-2(4,2)-thiazola-1(5,3)-indola-6(1,3)-pyridazinacycloundecaphane-4-yl)-2,3-dimethylcyclopropane-1-carboxamide], the half-life at 1 µM [1] is reported as 25 min, the CLint scaled at 1 µM [1] is reported as 64.2 mL/min/kg and the IC50 [2, 3] is reported as 0.06 nM.

For `CCn1c(-c2cc(C#CCN3CCCOCC3)cnc2[C@H](C)OC)c2c3cc(ccc31)-c1csc(n1)C[C@H](NC(=O)CC1CC1)C(=O)N1CCC[C@H](N1)C(=O)OCC(C)(C)C2` (atropisomer, axis not shown; (Ra)) [Compound Z915], the IC50 [2, 3] was 1.04 nM.

Work on `CCn1c(-c2cc(C#CCN3CCCOCC3)cnc2[C@H](C)OC)c2c3cc(ccc31)-c1csc(n1)C[C@H](NC(=O)[C@H]1[C@H](C)[C@@H]1C)C(=O)N1CCC[C@H](N1)C(=O)OCC(C)(C)C2` (single isomer, unassigned) [Compound Z504] yielded an IC50 [2, 3] of 0.31 nM.

In the case of `CCn1c(-c2cc(C#CCN3CCC3)cnc2[C@H](C)OC)c2c3cc(ccc31)-c1csc(n1)C[C@H](NC(=O)[C@H]1[C@H](C)[C@@H]1C)C(=O)N1CCC[C@H](N1)C(=O)OCC(C)(C)C2` (single isomer, unassigned) [Compound Z554], the IC50 [2, 3] is reported as 0.83 nM.

With `CCn1c(-c2cc(C#CCN3CCCOCC3)cnc2[C@H](C)OC)c2c3cc(ccc31)-c1csc(n1)C[C@H](NC(=O)[C@H]1C[C@@H]1C)C(=O)N1CCC[C@H](N1)C(=O)OCC(C)(C)C2` (single isomer, unassigned) [Compound Z604] the IC50 [2, 3] was 0.45 nM.

Molecule `CCn1c(-c2cc(C#CCN3CCCOCC3)cnc2[C@H](C)OC)c2c3cc(ccc31)-c1csc(n1)C[C@H](NC(=O)CC(C)C)C(=O)N1CCC[C@H](N1)C(=O)OCC(C)(C)C2` (single isomer, unassigned) [Compound Z803] has an IC50 [2, 3] of 0.61 nM.

Reference: patent US20260234165A1, “MACROCYCLIC COMPOUNDS, PREPARATION METHOD THEREFOR, AND USE THEREOF” (GENFLEET THERAPEUTICS (SHANGHAI) INC., priority 2004, published 2026)
